Data reported in patent US5985926A, “Method for inhibiting intracellular viral replication” (Cell Therapeutics, Inc., priority 1997, dated 1999).

Tests used:
[1] = Viability of 293-EBNA cells, Alamar Blue; type: cell-based, human; settings: human, 293-ebna cells; read-out: LD50 (CMV assay, FIG. 9)
Procedure: (§1) Cell viability was measured by a colorimetric assay that uses Alamar Blue dye (Alamar, Inc.) to report cell proliferation, viability and cytotoxicity. This vital dye indicates cell activity by serving as substrate for mitochrondrial dehydrogenases for the formation of soluble dyes which can be quantitated by determining the difference in absorbance between A570 and A600 using a plate reader.
as §1, with “[…]” for “colorimetric”
This example illustrates that CT2576 suppressed both tat-dependent and TNF-α induced HIV-LTR transcription with an IC50 of approximately 10 μM. Study of the effects of CT2576 on cell toxicity was performed using the Alamar Blue™ dye (Alamar Biosciences) according to the manufacturer's instructions. CT2576 was not toxic to 293-EBNA cells at concentrations up to 35 μM. To show CT2576 can inhibit HIV expression, CT2576 was tested for the ability to block HIV p24 antigen expression in chronically or acutely infected cells. Specifically, CT2576 inhibited the TNF-α and IL-6 induced and the constitutive expression of HIV in the chronically infected U1 cells and in peripheral blood lymphocytes (PBL) freshly infected with a HIV strain from a clinical isolate with an IC50 of approximately 1 μM. Pharmacological inhibition of synthesis of selected PL may therefore be a novel therapeutic approach to suppression of HIV replication.

[2] = tested on: CMV promoter in 293-EBNA cells; test: AP reporter gene expression from CMV promoter, 293-EBNA cells stably transfected with pCMV.AP; type: cell-based, human cytomegalovirus; human cells; settings: Homo sapiens, 293-EBNA; FIG. 8; read-out: concentration inhibiting AP activity by 50% (CMV assay)
Procedure: An assay for measuring the anti-viral activity of the compounds involves testing the abilities of the compounds to inhibit gene expression directed by specific viral promoters in cell lines. Specifically, a plasmid construct, pCMV.AP, using the human cytomegalovirus (CMV) enhancer and promoter to direct the expression of the secreted human placental alkaline phosphatase reporter gene were transformed into a tumor cell line (e.g., 293-EBNA cells). The cultured cells were treated with various concentrations of the compounds. The expression of the alkaline phosphatase (AP) reporter gene in the individual cultures can then be measured by following the change in absorbance at A405 of the cell conditioned media in the presence of a suitable substrate (e.g., ortho-nitrophenol phosphate) (Berger et al., Gene 66:1,1988).
The construction of expression vectors for secreted placental alkaline phosphatase (sPAP) was performed by obtaining a mammalian episomal expression vector pBL3, derived from the plasmids pMEP4 and pCEP4 (Invitrogen Corp). Specifically, a 600 bp Spe I--Kpn I fragment spanning the CMV promoter from pCEP4 and a 9500 bp Xba I--Kpn I vector fragment from pMEP4 were isolated and ligated together to form pBL3. Full length sPAP cDNA was amplified by PCR using the plasmid pGEM4Z/SEAP (ATCC) as template with primers 5'-[…]-3' (SEQ ID NO. 1) and 5'-[…]-3' (SEQ ID NO. 2). The PCR product was then digested with Xba I and Sal I and inserted between the Nhe I site and the Xho I site within the multiple cloning region of pBL3. The resulting plasmid was designated as PCMV.AP.

[3] = Viability of 293-EBNA cells (dye not stated); settings: human
[4] = tested on: HIV-LTR promoter (tat transactivation) in 293-EBNA cells; test: AP reporter gene expression from HIV-LTR promoter with tat expression vector, 293-EBNA cells; type: cell-based, HIV; human cells
Source text: The plasmid construct, pHIV.AP, using the human immunodeficiency virus (HIV) long terminal repeat (LTR) promoter (derived from pU3R-III CAT, Sodroski et al., Science 227:171, 1985) to direct the expression of the sPAP reporter gene, was made by replacing the CMV promoter region from pCMV.AP with the HIV-LTR promoter. PHIV.AP was co-transfected with pSV2tat72, an expression vector for the 72 amino acids tat protein from HIV (Frankel and Pabo, Cell 55:1189-1193, 1988), into 293-EBNA cells (Invitrogen). The cultured cells were treated with various concentrations of the compounds. The expression of the alkaline phosphatase (AP) reporter gene in the individual cultures was measured by following change in absorbance at 405 nm of the cell conditioned media in the presence of a suitable substrate (e.g., ortho-nitrophenol phosphate) (Berger et al., Gene 66:1-10, 1988).
We set up a cell-based system with a cell line cotransfected with an expression plasmid using HIV-1-LTR promoter to direct synthesis of AP reporter gene and an expression plasmid to direct synthesis of the first 72 amino acids of tat protein. Plasmid pREP7 (Invitrogen) was converted to pREP7b by deleting 2,040 bp EBNA-1 coding region and by replacing the pBR322 origin of replication (ori) with the pBluescript KS (Stratagene) ori region. The cDNA for secreted placental alkaline phosphatase (AP) was generated by PCR with the primers (5'-[…]-3')(SEQ ID NO. 3) and (5'-[…]-3') (SEQ ID NO. 4)using the plasmid pGEM-4Z/PLAP489 (American Type Culture Collection) as the template. The 2,000 bp Xba I-Sal I fragment obtained was ligated into a Nhe I/Xho I vector derived from pREP7b to generate the plasmid pREP7b.AP. The 44 bp Xba I-Bgl II fragment from plasmid pMEP4 (Invitrogen)and the 36 bp BamH I-Kpn I fragment from pREP7 were ligated into the Xba I-Kpn I vector fragment from pREP7b.AP to generate the plasmid pMCS.AP. The 720 bp Xho I-Hind III fragment encoding the HIV-LTR promoter from the plasmid pU3R-III-CAT (Sodroski et al., Science 227:171-173, 1985) was ligated into the Xho I-Hind III vector fragment of PMCS.AP to generate the plasmid pHIV.AP. The CMV promoter was derived from the 600 bp Spe I-Asp718 I fragment from pCEP4 (Invitrogen). The 360 bp SV40 early promoter fragments were produced from pSV2tat72 (Frankel et al., Cell 55:1189-1193,1988) by PCR using the primers (5'-[…]-3') (SEQ ID NO. 5) and (5'-[…]-3') (SEQ ID NO. 6). The 480 bp phosphoglycerate kinase (PGK) promoter fragment was amplified from human placental genomic DNA (Promega, Madison, Wis.) based on published sequence (Pfeifer et al., Science 246:810-813, 1990) using the primers (5'-[…]-3') (SEQ ID NO. 7) and (5'-[…]-3') (SEQ ID NO. 8). The above fragments were ligated into the Xba I-Asp718 I vector fragment of pHIV.AP to generate pHIV2.AP, pHIV3.AP, pCMV.AP, pSVE.AP and PPGK.AP respectively. The tat-expression plasmid directed by HIV-LTR promoter, pHIV.tat, was generated by inserting the 400 bp EcoRV-HindIII fragment from pHIV.AP into the PvuII-HindIII vector fragment from pSV2tat72 (Frankel et al., Cell 55:1189-1193, 1988).
Transient transfections with various expression plasmids were performed on a human kidney embryonic cell line 293-EBNA (Invitrogen) using the cationic lipid DOTAP (Boehringer Mannheim). The cell culture media were changed 24 hr after transfection into a serum-free medium AIM V (Life Technologies) before addition of compounds or TNF-α (PeproTech) at the appropriate concentrations. AP activity measured by a colorimetric assay (Berger et al., Gene 66:1-10, 1988) was performed 19-24 hr later.

AP mRNA in 293tat cells = test: AP mRNA level in 293tat cells, Northern blot; type: cell-based, human; settings: with TNF-α or IL-1β
Procedure: (§2) Nuclear extracts (A) from 293tat cells were tested by EMSA for activation of NFκB. A radiolabeled 40-mer covering the NFκB sequences in the HIV promoter was used as a probe. Cells were incubated with CT2576 at 12 μM, human TNF-α at 40 ng/ml or IL-1β at 1 ng/ml, or pre-incubated for 30 min. with CT2576 and then stimulated with TNF-α or IL-1β for 18 hr prior to making extracts. RNA was extracted from 293tat cells (B) after treatment with CT2576 without or with TNF-α or IL-1β for 18 hr. Northern blots analysis were performed using probes derived from AP cDNA and G3PDH cDNA as a control for normalization of mRNA level. AP activity was determined in cell supernatants from the various samples.
(§3) NFκB binding activity in nuclear extracts (Dignam et al., Nucleic Acids Res. 11:1475-1489, 1983) of cells was measured by electrophoretic mobility-shift assay (EMSA) (Carthew et al., Cell 43:439-448, 1985) using 5'-labeled double-stranded synthetic DNA with two NF-κB motifs. Northern blot analysis was performed with total RNA run on 1% agarose/formaldehyde gel and probed with ^32 P-labeled cDNA of AP and glyceraldehyde-3-phosphate dehydrogenase (G3PDH).

[5] = tested on: phosphatidic acid (PA) subspecies in 293tat cells; test: PA composition of 293tat cells by HPLC; type: cell-based, human
Procedure: One must first quantitatively and qualitatively separate PAs from the other lipids found in serum by a chemical extraction of lipids and high performance liquid chromatography (HPLC) to separate and detect PAs. […] Briefly, the method of Bligh et al. involves an organic extraction of lipids from biological tissue homogenates or fluids. One volume of sample and three volumes of methanol:chloroform (2:1) are vigorously shaken for 2 min. One volume of chloroform is added and then shaken vigorously for 30 sec. One volume of water is added and then shaken vigorously for 30 sec. The mixture is filtered and the upper aqueous layer is discarded. The lower organic layer contains a mixture of lipid classes. The method of Folch et al. involves the extraction of lipids from biological tissue homogenates or body fluids. One volume of sample plus 20 volumes of chloroform:methanol (2:1) are vigorously shaken for 2 min. The mixture is filtered and an amount of 0.1 N KCl equal to 20% of the extraction mixture volume is added and the mixture is shaken vigorously for 2 min. The aqueous and organic phases are allowed to separate. The upper aqueous layer is discarded. The lower organic layer contains a mixture of lipid classes. […] This method involves separation of lipids into their major classes by normal phase (silica) high performance liquid chromatography (HPLC). A 5 micron, 25 cm×0.45 cm silica HPLC column is connected to a binary solvent delivery system followed with a UV detector. The lipid sample is injected on the column and a solvent gradient is run at 1.0 ml/min. The solvent gradient is hexane:isopropanol:water in the proportions 3:4:0.75 run isocratically for 3 min, then ramped to hexane:isopropanol:water in the proportions 3:4:1.4 in 15 min, then run isocratically at the same proportions for 15 min. Detection is at 206 nm.
One of the steps after cell activation involves the hydrolysis of phosphatidylcholine (PC), the major phospholipid of cellular membranes, by phospholipases C and D, leading to the generation of second messengers, such as PA and DG, in the signal transduction cascade.

[6] = tested on: HIV-LTR promoter in 293-EBNA cells; test: AP reporter expression in 293-EBNA cells with HIV-LTR plasmids, TNF-α stimulation; type: cell-based, HIV; human cells
Procedure: FIG. 14 illustrates the effect of tat and TNF-α on HIV-LTR-mediated reporter gene expression in 293-EBNA cells. The y-axis refers to the relative amount of AP reporter gene activity present in the culture media of 293-EBNA cells after transient transfection with various plasmids. Freshly trypsinized 293-EBNA cells at 10^4 cells per sample were transfected with 2 μg of either pHIV.AP, pHIV2.AP, or pHIV3.AP alone or in combination with pSV2tat72 or pHIV.tat using the cationic lipid DOTAP. The plasmids pHIV.AP, pHIV2.AP, and pHIV3.AP contain nucleotides -453 to +80, -107 to +80, and -80 to +80 of the HIV-LTR sequence respectively. Transfected cells were plated in 96-well microtiter plates at 2,000 cells per well. The cell culture media were changed 24 hr later into new medium. The samples were incubated for another 24 hr with or without TNF-α (20 ng/ml). 2 μl of medium from each well was used for AP assay. The height of each column represents the mean of triplicate samples with error bar indicating the standard deviation of the mean.
AP reporter gene activity expressed in 293-EBNA cells transfected with either pHIV.AP alone or in combination with pSV2tat72, pHIV.tat or with TNF-α stimulation is shown in FIG. 14. The plasmid pHIV.AP contains the full-length HIV-LTR sequence that extends from nucleotides -453 to +80. The expression level of AP was low using the pHIV.AP construct alone, indicating the presence of negative regulatory elements in the HIV-LTR sequence. Induction with TNF-α increased the AP expression level by about 4 fold. The AP expression level increased by 15 to 70 fold in the presence of the tat expression plasmids pHIV.tat or pSV2tat72. […] TNF-α and tat in combination enhanced the AP expression level by two fold when using the pSV2tat72 construct, and by ten fold when using the pHIV.tat construct, but the final levels of AP activity were similar.

NFκB = NFκB activation in 293tat cells, electrophoretic mobility shift assay; type: cell-based, human; settings: CT2576 12 μM, TNF-α 40 ng/ml or IL-1β 1 ng/ml
Procedure: as §2, §3

CCCCCCCCNCC(O)CCCCCCCCCN1C(=O)Cc2ccccc2C1=O (stereo not drawn) [CT1115, N-(11-octylamino-10-hydroxyundecyl)homophthalimide]
CC50 [1]: ~5 µM | IC50 [2]: 2 to 6 µM

CCCCCCCCCCCCNCC(O)CCCCCCCn1c(=O)c2c(ncn2C)n(C)c1=O (stereo not drawn) [CT2573, 1-(9-dodecylamino-8-hydroxynonyl)-3,7-dimethylxanthine]
CC50 [3]: ~5 µM | inhibition of AP expression (HIV-LTR promoter) ([4]; 293-EBNA cells, HIV promoter, in words): did not affect AP activity | IC50 ([4]; Homo sapiens, 293-EBNA, read-out: concentration inhibiting AP expression by 50%): 1 to 4 µM

TNF-α
AP transcript / mRNA steady-state level (AP mRNA in 293tat cells): induction of AP transcripts | increase of C14-16 saturated acyl chain PA peak ([5]; TNF-α 45 sec): up to 80% | C14-16 saturated PA peak, share of total far UV absorbing lipids after TNF-α ([5]; TNF-α 45 sec (from 5.4%)): 9% | fold enhancement of AP expression by TNF-α with pHIV.tat ([6]; TNF-α and tat in combination, pHIV.tat construct): ten | fold enhancement of AP expression by TNF-α with pSV2tat72 ([6]; TNF-α and tat in combination, pSV2tat72 construct): two | fold increase of AP expression level by TNF-α ([6]; pHIV.AP alone): about 4 fold | activation of NFκB (NFκB): NFκB was activated
